Reference: patent US8889704B2 (Array BioPharma Inc., priority 2011, dated 2014)
Counter-ions that a name gives are not always drawn.

What was measured:
Type in all cases: biochemical
[1] = molecular target: T1, GST-tagged recombinant full-length human Pim-2 (Homo sapiens, UniProt Q9P1W9); experiment: PIM-2 Assay (as Example A); details: averaged IC50; 4 μM ATP, 1.0 μM PIM2tide, 1.5 nM Pim-2
T1 construct: GST-tagged recombinant full-length human Pim-2; GST
Summary of the method: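 Radiometric filter-binding assay: GST-tagged full-length human Pim-2 (1.5 nM) phosphorylates 1.0 μM PIM2tide with 4 μM [γ-33P]ATP for 60 min at 22 °C in pH 7.4 MOPS buffer, 2% DMSO. 10-point 3-fold dilutions from 10 μM top dose; IC50 from 4-parameter fit of percent of control.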

PIM-1 = PIM-1 (Homo sapiens, UniProt P11309); experiment: Enzyme PIM-1 Assay ([33P]ATP incorporation into PIM2tide, filter plate); details: averaged IC50; 35 μM ATP, 7.5 μM PIM2tide, 0.25 nM PIM-1, 60 min at 22° C.
Summary of the method: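 Radiometric assay: 0.25 nM PIM-1 phosphorylates 7.5 μM PIM2tide with 35 μM [γ-33P]ATP in 20 mM MOPS pH 7.4, 10 mM MgCl2, 1 mM DTT, 0.005% Tween-20, 60 min at 22 °C. Product captured on P81 filters, scintillation counted; 10-point 3-fold curve from 10 μM top, 2% DMSO, IC50 by 4-parameter logistic fit of POC.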

recombinant rat PIM-3 = recombinant rat PIM-3 (Rattus norvegicus, UniProt O70444); experiment: PIM-3 Assay (as Example A); details: averaged IC50; 30 μM ATP, 3.75 μM PIM2tide, 0.5 nM PIM-3
Summary of the method: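 Recombinant rat PIM-3 (0.5 nM) with 3.75 μM PIM2tide and 30 μM [γ-33P]ATP in MOPS pH 7.4 buffer, 60 min at 22 °C; labelled peptide captured on phosphocellulose filters and counted by scintillation. 10-point curve (top dose 10 μM, 2% DMSO); IC50 from 4-parameter fit of percent of control.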

Sequence of PIM-1 (P11309 whole entry, species assumed): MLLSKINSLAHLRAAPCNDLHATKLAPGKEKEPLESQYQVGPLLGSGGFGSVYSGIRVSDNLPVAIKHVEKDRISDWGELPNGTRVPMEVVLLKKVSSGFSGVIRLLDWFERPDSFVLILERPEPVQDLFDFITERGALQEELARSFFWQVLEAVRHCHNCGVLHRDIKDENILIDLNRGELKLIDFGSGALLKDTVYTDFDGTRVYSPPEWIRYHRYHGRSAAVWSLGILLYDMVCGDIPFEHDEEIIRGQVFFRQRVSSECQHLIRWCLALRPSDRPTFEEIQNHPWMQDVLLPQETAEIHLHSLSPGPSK
T1 sequence (Q9P1W9 whole entry): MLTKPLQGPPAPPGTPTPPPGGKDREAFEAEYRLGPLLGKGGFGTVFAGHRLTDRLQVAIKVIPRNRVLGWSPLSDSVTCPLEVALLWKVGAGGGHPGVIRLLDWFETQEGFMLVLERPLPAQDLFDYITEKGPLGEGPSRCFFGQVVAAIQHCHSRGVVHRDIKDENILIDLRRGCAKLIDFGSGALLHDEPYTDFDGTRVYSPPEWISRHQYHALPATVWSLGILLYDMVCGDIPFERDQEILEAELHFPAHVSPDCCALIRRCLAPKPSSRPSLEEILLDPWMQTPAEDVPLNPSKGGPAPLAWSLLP

| SMILES | IC50 [1] [nM] | IC50 (PIM-1) [nM] | IC50 (recombinant rat PIM-3) [nM] |
| --- | --- | --- | --- |
| CCOc1ccc2ccc(-c3nnc4ccc([C@H](N5CCC6(CCCN6)C5)C(F)(F)F)cn34)nc2c1 (stereo partly drawn) [Example 258, 7-ethoxy-2-(6-((1S)-2,2,2-trifluoro-1-(1,7-diazaspiro[4.4]nonan-7-yl)ethyl)-[1,2,4]triazolo[4,3-a]pyridin-3-yl)quinoline dihydrochloride] | 531 | 2.05 | 1.9 |
| COCCOc1ccc2ccc(-c3nnc4ccc([C@@H](N5CC[C@](C)(N)C5)C(F)(F)F)cn34)nc2c1 [Example 261, (S)-3-methyl-1-((R)-2,2,2-trifluoro-1-(3-(7-(2-methoxyethoxy)quinolin-2-yl)-[1,2,4]triazolo[4,3-a]pyridin-6-yl)ethyl)pyrrolidin-3-amine dihydrochloride] | > 1000 | 0.6 | 3.3 |
| COCC(C)(C)Oc1cccc2ccc(-c3nnc4ccc([C@@H](N5CC[C@H](N)C5)C(F)(F)F)cn34)nc12 [Example 263, (S)-1-((R)-2,2,2-trifluoro-1-(3-(8-(1-methoxy-2-methylpropan-2-yloxy)quinolin-2-yl)-[1,2,4]triazolo[4,3-a]pyridin-6-yl)ethyl)pyrrolidin-3-amine formate] | 454 | 0.66 | 3 |
| N[C@H]1CCN([C@H](c2ccc3nnc(-c4ccc5ccc(CCO)cc5n4)n3c2)C(F)(F)F)C1 [Example 265, 2-(2-(6-((R)-1-((S)-3-aminopyrrolidin-1-yl)-2,2,2-trifluoroethyl)-[1,2,4]triazolo[4,3-a]pyridin-3-yl)quinolin-7-yl)ethanol dihydrochloride] | > 1000 | 0.53 | 1.3 |
| CCSc1ccc2ccc(-c3nnc4ccc([C@@H](N5CC[C@H](N)C5)C(F)(F)F)cn34)nc2c1 [Example 266, (S)-1-((R)-1-(3-(7-(ethylthio)quinolin-2-yl)-[1,2,4]triazolo[4,3-a]pyridin-6-yl)-2,2,2-trifluoroethyl)pyrrolidin-3-amine hydrochloride] | 690 | 0.5 | 1 |
| CC(C)Sc1ccc2ccc(-c3nnc4ccc([C@@H](N5CC[C@H](N)C5)C(F)(F)F)cn34)nc2c1 [Example 268, (S)-1-((R)-2,2,2-trifluoro-1-(3-(7-(isopropylthio)quinolin-2-yl)-[1,2,4]triazolo[4,3-a]pyridin-6-yl)ethyl)pyrrolidin-3-amine hydrochloride] | > 1000 | 0.89 | 3.4 |
| N#CCOc1cccc2ccc(-c3nnc4ccc([C@@H](N5CC[C@H](N)C5)C(F)(F)F)cn34)nc12 [Example 270, 2-(2-(6-((R)-1-((S)-3-aminopyrrolidin-1-yl)-2,2,2-trifluoroethyl)-[1,2,4]triazolo[4,3-a]pyridin-3-yl)quinolin-8-yloxy)acetonitrile formate] | 434 | 0.38 | 1.9 |
| COCC(COC)Oc1cccc2ccc(-c3nnc4ccc([C@@H](N5CC[C@H](N)C5)C(F)(F)F)cn34)nc12 [Example 271, ((S)-1-((R)-1-(3-(8-(1,3-dimethoxypropan-2-yloxy)quinolin-2-yl)-[1,2,4]triazolo[4,3-a]pyridin-6-yl)-2,2,2-trifluoroethyl)pyrrolidin-3-aminedihydrochloride] | 647 | 0.73 | 4.3 |
| CCSc1cccc2ccc(-c3nnc4ccc([C@@H](N5CC[C@H](N)C5)C(F)(F)F)cn34)nc12 [Example 273, (S)-1-((R)-1-(3-(8-(ethylthio)quinolin-2-yl)-[1,2,4]triazolo[4,3-a]pyridin-6-yl)-2,2,2-trifluoroethyl)pyrrolidin-3-amine hydrochloride] | > 1000 | 25.9 | 43 |
| CCOCCOc1ccc2ccc(-c3nnc4ccc([C@@H](N5CC[C@H](N)C5)C(F)(F)F)cn34)nc2c1 [Example 274, (S)-1-((R)-1-(3-(7-(2-ethoxyethoxy)quinolin-2-yl)-[1,2,4]triazolo[4,3-a]pyridin-6-yl)-2,2,2-trifluoroethyl)pyrrolidin-3-amine dihydrochloride] | 961 | 0.4 | 1.7 |

Stronger by IC50 [1], values ahead:

| IC50 [1] [nM] | IC50 (PIM-1) [nM] | IC50 (recombinant rat PIM-3) [nM] | SMILES |
| --- | --- | --- | --- |
| 54 | 0.12 | 0.3 | CC(C)(O)COc1cc(F)cc2ccc(-c3nnc4ccc([C@@H](N5CC[C@H](N)C5)C(F)(F)F)cn34)nc12 [Example 259, 1-(2-(6-((R)-1-((S)-3-aminopyrrolidin-1-yl)-2,2,2-trifluoroethyl)-[1,2,4]triazolo[4,3-a]pyridin-3-yl)-6-fluoroquinolin-8-yloxy)-2-methylpropan-2-ol formate] |
| 95 | 0.39 | 0.5 | COCCOc1ccc2ccc(-c3nnc4ccc([C@H](N5CC[C@](C)(N)C5)C(F)(F)F)cn34)nc2c1 [Example 260, (S)-3-methyl-1-((S)-2,2,2-trifluoro-1-(3-(7-(2-methoxyethoxy)quinolin-2-yl)-[1,2,4]triazolo[4,3-a]pyridin-6-yl)ethyl)pyrrolidin-3-amine dihydrochloride] |
| 63 | 0.22 | 0.4 | CCOc1ccc2ccc(-c3nnc4ccc([C@H](N5CC[C@](C)(N)C5)C(F)(F)F)cn34)nc2c1 [Example 262, (S)-1-((S)-1-(3-(7-ethoxyquinolin-2-yl)-[1,2,4]triazolo[4,3-a]pyridin-6-yl)-2,2,2-trifluoroethyl)-3-methylpyrrolidin-3-amine dihydrochloride] |
| 255 | 0.54 | 1.3 | COCC(C)(C)Oc1cc(F)cc2ccc(-c3nnc4ccc([C@@H](N5CC[C@H](N)C5)C(F)(F)F)cn34)nc12 [Example 264, (S)-1-((R)-2,2,2-trifluoro-1-(3-(6-fluoro-8-(1-methoxy-2-methylpropan-2-yloxy)quinolin-2-yl)-[1,2,4]triazolo[4,3-a]pyridin-6-yl)ethyl)pyrrolidin-3-amine formate] |
| 350 | 0.35 | 0.7 | N[C@H]1CCN([C@H](c2ccc3nnc(-c4ccc5ccc(SCCO)cc5n4)n3c2)C(F)(F)F)C1 [Example 267, 2-(2-(6-((R)-1-((S)-3-aminopyrrolidin-1-yl)-2,2,2-trifluoroethyl)-[1,2,4]triazolo[4,3-a]pyridin-3-yl)quinolin-7-ylthio)ethanol hydrochloride] |
| 413 | 0.37 | 2 | COCCc1ccc2ccc(-c3nnc4ccc([C@@H](N5CC[C@H](N)C5)C(F)(F)F)cn34)nc2c1 [Example 269, (S)-1-((R)-2,2,2-trifluoro-1-(3-(7-(2-methoxyethyl)quinolin-2-yl)-[1,2,4]triazolo[4,3-a]pyridin-6-yl)ethyl)pyrrolidin-3-amine dihydrochloride] |
| 124 | 0.24 | 0.5 | CC(C)(O)COc1cccc2ccc(-c3nnc4ccc([C@@H](N5CC[C@@](C)(N)C5)C(F)(F)F)cn34)nc12 [Example 272, 1-(2-(6-((R)-1-((R)-3-amino-3-methylpyrrolidin-1-yl)-2,2,2-trifluoroethyl)-[1,2,4]triazolo[4,3-a]pyridin-3-yl)quinolin-8-yloxy)-2-methylpropan-2-ol dihydrochloride] |
